Test results published in US7803757B2, “Peptides based on the sequence of human lactoferrin and their use” (PharmaSurgics in Sweden AB, priority 1998, dated 2010).
In brackets after ≈: the same amount, converted by molar mass. Bridge positions count the residues as written; N and C are the ends. Ends that are not written are not given here. Peptide text beside a SMILES is read from it. * marks the point of attachment. Acm = CC(=O)NC*

Columns and labels:
Assay type in all cases: cell-based
E. coli O6 = settings: for MMC99%: E. coli O6, tested at 1, 10, 25 and 100 μg/ml of peptide; for MIC: O6
Protocol: (§1) In the examples, the minimal microbicidal concentrations (MMC) and minimal inhibitory concentrations (MIC) were determined as follows, unless otherwise specified in the examples. Bacterial or fungal strains were cultured in BHI medium over night at 37° C. A volume of the culture was transferred to a new tube with BHI and incubated for two more hours. Thereafter the cells were spun down and the pellet was suspended in BHI medium diluted 1/100 (1% BHI). The concentration of bacterial or fungal cells was spectrophotometrically determined at 650 nm. The microbial concentrations were also determined by viable counts. Peptides serially diluted in 1% BHI by twofold or tenfold steps were added in triplicate to the wells of a microtiterplate (200 μl per well). The bacterial or fungal cell solutions were added in 10 μl volumes to give a final concentration of approximately 1-5×10^5 cells per ml in the well. The microplate was incubated at 37° C. in a humid chamber for two hours. Thereafter 5 μl was taken from each well and added as a drop onto a blood agar plate and incubated over night at 37° C. The microplate was incubated for another 20 hours at 37° C. and thereafter analysed spectrophotometrically at 650 nm in a microplate reader (Emax, Molecular Devices, USA). The concentration of peptide causing a 99% reduction of the inoculum after 2 hours of incubation was defined as the MMC99%. The MIC value was defined as the concentration giving no increase in the absorbance value above the background level after 20 hours of incubation.
(§2) C. albicans (ATCC64549) and E. coli O6, respectively, were incubated with the different peptides. The experiments were performed with 1, 10, 25 and 100 μg/ml of peptide.

C. albicans (ATCC64549) = settings: for MIC: ATCC64549; for MMC99%: C. albicans, tested at 1, 10, 25 and 100 μg/ml of peptide
Protocol: as §1, §2

[1] = tested on: C. albicans yeast cells (ATCC64549); experiment: killing and growth inhibition of C. albicans at pH 4.5 (Example 11); design: key to C. albicans inhibition (OD650): + = no increase in OD650 is seen; − = OD650 continues to increase; settings: pH 4.5, 1% BHI, 25 μg/ml of the peptide; for C. albicans inhibition (OD650): OD650 after an additional 18 hours; for C. albicans killing: 99% / C. albicans killing: 100%: 2 hours
Protocol: C. albicans yeast cells (ATCC64549) were incubated for 2 hours at pH 4.5 in BHI medium diluted to 1% of the original concentration containing 25 µg/ml of the peptide. Thereafter the fungal solutions were cultured on blood agar plates. OD650 was measured after incubation during an additional 18 hours. The fungicidal effect of the peptides on C. albicans was determined as the ability of the peptide to kill 100% and 99%, respectively, of the fungus, while the growth inhibitory effect was determined by measuring the OD650. An inhibitory effect existed when no increase in OD650 was recorded.

S. aureus = experiment: killing of bacteria at fixed peptide concentration, S. aureus (Example 12); settings: peptide 25 μg/ml
Protocol: (§3) In this example, the peptides according to the invention were used to study the effect on the killing of different bacteria.
(§4) The peptides were used at a concentration of 25 μg/ml.

P. aeruginosa = experiment: killing of bacteria at fixed peptide concentration, P. aeruginosa (Example 12); settings: peptide 25 μg/ml
Protocol: as §3, §4

E. faecalis = experiment: killing of bacteria at fixed peptide concentration, E. faecalis (Example 12); settings: peptide 25 μg/ml
Protocol: as §3, §4

S. epidermis = experiment: killing of bacteria at fixed peptide concentration, S. epidermis (Example 12); settings: peptide 25 μg/ml
Protocol: as §3, §4

K. pneumoniae = experiment: killing of bacteria at fixed peptide concentration, K. pneumoniae (Example 12); settings: peptide 25 μg/ml
Protocol: as §3, §4

[2] = tested on: Candida albicans ATCC 64549; experiment: fungicidal and growth inhibitory activity, Candida albicans ATCC 64549 (Example 8); settings: for Concentration of agent for 100% killing: C. albicans ATCC 64549 1·10^5/ml, 2 hours 37° C., diluted BHI; for Concentration of agent for inhibition of growth: C. albicans ATCC 64549, spectrophotometrically after 20 hours
Protocol: Candida albicans ATCC 64549 (1·10^5/ml) was incubated in the presence of the peptides during 2 hours at 37° C. in diluted growth medium (BHI, twofold serial dilutions starting with 50 μg/ml). The fungicidal activity was measured by culturing 5 μl from each incubation well on Saboroud agar plates.
The inhibition of growth was measured spectrophotometrically after 20 hours of incubation.

E. coli O14 = experiment: bactericidal and growth inhibitory activity, E. coli O14 (Example 9); settings: for Concentration of agent for 100% killing: E. coli O14, 2 hours; for Concentration of agent for inhibition of growth: E. coli O14, spectrophotometrically after 20 hours
Protocol: E. coli O14 was incubated as described above in the presence of the peptides during 2 hours. The bactericidal activity was measured in the same way as described above.
The inhibition of growth was measured spectrophotometrically after incubation during 20 hours.

| Compound | MMC99% (E. coli O6) | MIC (E. coli O6) | MIC (C. albicans (ATCC64549)) | MMC99% (C. albicans (ATCC64549)) | C. albicans inhibition (OD650) [1] | C. albicans killing: 99% [1] | C. albicans killing: 100% [1] | killing of bacteria: S. aureus (S. aureus) | killing of bacteria: P. aeruginosa (P. aeruginosa) | killing of bacteria: E. faecalis (E. faecalis) | killing of bacteria: S. epidermis (S. epidermis) | killing of bacteria: K. pneumoniae (K. pneumoniae) | Concentration of agent for 100% killing [2] | Concentration of agent for inhibition of growth [2] | Concentration of agent for 100% killing (E. coli O14) | Concentration of agent for inhibition of growth (E. coli O14) |
| --- | --- | --- | --- | --- | --- | --- | --- | --- | --- | --- | --- | --- | --- | --- | --- | --- |
| Ac-TKCFQWQRNMRKVR-NH2 [Peptide 51] | 10 µg/mL | 10 µg/mL | 10 µg/mL | 10 µg/mL | + | + (+ = 100/99% of the bacteria are killed) | + (+ = 100/99% of the bacteria are killed) | + (+ = 99% of the bacteria are killed) | + (+ = 99% of the bacteria are killed) | + (+ = 99% of the bacteria are killed) | + (+ = 99% of the bacteria are killed) | + (+ = 99% of the bacteria are killed) |  |  |  |  |
| Peptide 2: SEQ. ID. NO. 1 with X1 E, X2 A, X5 C, X7 Q, X11 N, X17-25 G-P-P-V-S-C-I-K-R; cysteines acetamidomethyl protected (Ac-EATKC(Acm)FQWQRNMRKVRGPPVSC(Acm)IKR-NH2) |  |  |  |  |  |  |  |  |  |  |  |  | 6.2 µg/mL | 6.2 µg/mL | 25 µg/mL | 6.2 µg/mL |
| CSCC[C@@H]1NC(=O)[C@@H](NC(=O)[C@H](CCCNC(=N)N)NC(=O)[C@@H]2CC(=O)NCCCC[C@H](NC(=O)[C@H](CCCCN)NC(=O)[C@@H](NC(C)=O)[C@@H](C)O)C(=O)N[C@@H](Cc3ccccc3)C(=O)N[C@@H](CCC(N)=O)C(=O)N[C@@H](Cc3c[nH]c4ccccc34)C(=O)N2)CCCCNC(=O)C[C@@H](C(=O)N[C@@H](CCCNC(=N)N)C(N)=O)NC(=O)[C@H](CCCCN)NC(=O)[C@H](CCCNC(=N)N)NC1=O [Peptide 61] (Ac-TKKFQWDRKMRKDR-NH2; lactam 3-7, 9-13; N-terminus and C-terminus assumed) | 10 µg/mL | 10 µg/mL (≈ 5.19 µM) | 10 µg/mL (≈ 5.19 µM) | 10 µg/mL | + | + (+ = 100/99% of the bacteria are killed) | − (− = less than 100/99% of the bacteria are killed) | + (+ = 99% of the bacteria are killed) | + (+ = 99% of the bacteria are killed) | + (+ = 99% of the bacteria are killed) | + (+ = 99% of the bacteria are killed) | + (+ = 99% of the bacteria are killed) |  |  |  |  |
| TKCFQWQRNMRKVR [Peptide 50] | 10 µg/mL | 10 µg/mL | 10 µg/mL | 10 µg/mL | + | + (+ = 100/99% of the bacteria are killed) | + (+ = 100/99% of the bacteria are killed) | + (+ = 99% of the bacteria are killed) | + (+ = 99% of the bacteria are killed) | + (+ = 99% of the bacteria are killed) | + (+ = 99% of the bacteria are killed) | + (+ = 99% of the bacteria are killed) |  |  |  |  |
| KCFQWQRNMRKVRGPPVSCI [Morinaga 25] (KCFQWQRNMRKVRGPPVSCI) [reference compound] |  |  |  |  |  |  |  |  |  |  |  |  | 6.2 µg/mL | 6.2 µg/mL | 12.5 µg/mL | 3.1 µg/mL |
